{"source": "paper PMC7472781", "about": "“Inherited and Acquired Determinants of Hepatic CYP3A Activity in Humans” (Frontiers in Genetics, 2020)", "key": {"CYP3A [1]": {"system": "CYP3A", "test": "clinical", "conditions": "for AUC: 0.2 mg midazolam i.v., zero to infinity; for AUC420: dose to 420 min; for AUC, mean / Intra-individual (between-days) mean coefficient of variation: three occasions", "protocol": "Midazolam was administered as a 2 min intravenous infusion with a total dose of 0.2 mg. The phenotyping test with midazolam was performed on three different occasions with a time interval of at least 1 week and maximally 3 months.\nPharmacokinetic parameters were estimated by non-compartmental analyses using the WinNonlin software (Pharsight Corporation, Mountain View, United States). The AUC from zero to infinity (AUC), was calculated by the linear/log trapezoidal rule and using the terminal elimination rate constant (lambda z). […] Total plasma clearance (Cl) after administration of midazolam was calculated as the ratio dose over AUC. Time (tmax) and amount of maximum plasma concentration (Cmax) were given as measured and the terminal half-life (t1/2) was calculated as t1/2 = ln(2)/lambda z."}, "CYP3A [2]": {"system": "CYP3A", "test": "Within- and between-subject variance and genetic component (Kalow) of the 4 CYP3A biomarkers, three occasions", "conditions": "for Genetic component: from intra- and inter-individual variation, independent of twin status, AUC, plasma concentration or 24-h urine Ae; for Variation that may be due to genetic factors (from genetic component): human, in vivo", "protocol": "(§1) Predefined primary endpoint was midazolam AUC. All concentrations and pharmacokinetic parameters were determined on three independent occasions to compare intra- versus interindividual variation. […] In structural equation modeling of heritability and in the other multifactorial analyses the individual means from the measurements or parameters obtained on the three occasions were used. Using structural equation analysis, variation was separated into additive genetic (A), common environmental (C), and unique environmental (E) effects. The heritability is the proportion of the variance resulting from the genetic effect (A). In order to investigate the genetic, common environmental, and unique environmental effects of the different traits taken into account, the possible correlation between traits were fitted in multivariate ACE, AE, and CE biometrical models using the mcglm package for multivariate regression analysis in R. As an exploratory analysis, we computed the correlation between MZ and DZ twins based on an unstructured (equal mean and variance for MZ and DZ twins) model. In all models, the mean structure for each trait was specified as a linear function of the covariates age and sex."}, "CYP3A [3]": {"system": "CYP3A", "test": "Twin correlations and structural equation modeling (ACE, AE, CE) of heritability of the CYP3A biomarkers", "conditions": "for rdz (correlation between DZ twins) / rmz (correlation between MZ twins): unstructured model", "protocol": "as §1"}, "CYP3A [4]": {"system": "CYP3A", "test": "Multifactorial analysis of genetic and environmental effects on the CYP3A probe drugs and biomarkers", "conditions": "in vivo", "protocol": "DNA was isolated from whole venous blood by automated solid phase extraction with the EZ1^TM DNA Blood 350 μl Kit using the Bio-robot EZ1^TM (both Qiagen, Hilden, Germany). The CYP3A4^∗1b and ^∗22 alleles as well as the CYP3A5^∗1/^∗3 polymorphism were genotyped by DNA sequencing using fluorescence-labeled dideoxynucleotides and detection via Gene Mapper v3.7 Software® (Applied Biosystems®, Foster City, United States). Zygosity was assessed by analyzing variants in 23 polymorphic genes. Monozygosity was concluded when there were no differences regarding the polymorphisms in both siblings of one twin pair.\nas §1"}, "[5]": {"conditions": "ref Heizmann et al., 1983; cited from earlier work"}, "CYP3A [6]": {"system": "CYP3A", "conditions": "in vivo; cited from earlier work"}}, "note": "Several values for one entry are separate records, joined by “and”; a condition that tells them apart may be missing. Equal values may be shown once. Marks after values point to notes of the source that are not given here.", "data": [{"smiles": "Cc1ncc2n1-c1ccc(Cl)cc1C(c1ccccc1F)=NC2", "note": "[Midazolam, midazolam]", "values": [{"measurement": "Median AUC", "setting": "CYP3A [1]; *1/*1 and *1/*1B genotypes (n = 110)", "value": 439.1, "unit": "μg ∗ min/L"}, {"measurement": "AUC", "setting": "CYP3A [1]; DZ twins, value (range)", "value": "431.0 (287.8 – 640.7) μg * min/L"}, {"measurement": "AUC420", "setting": "CYP3A [1]; DZ twins, value (range)", "value": "354.8 (240.0 – 542.9) μg * min/L"}, {"measurement": "tmax", "setting": "CYP3A [1]; DZ twins, value (range)", "value": "10 (10 – 19) min"}, {"measurement": "AUC", "setting": "CYP3A [1]; MZ twins, value (range)", "value": "450.3 (290.3 – 897.4) μg * min/L"}, {"measurement": "AUC420", "setting": "CYP3A [1]; MZ twins, value (range)", "value": "378.6 (255.8 – 636.4) μg * min/L"}, {"measurement": "AUC, inter-individual range", "setting": "CYP3A [1]; all subjects", "value": "288 – 897.4 μg∗min/L"}, {"measurement": "Inter-individual variation in AUC", "setting": "CYP3A [1]; all subjects", "value": 3.1, "unit": "fold"}, {"measurement": "AUC, mean", "setting": "CYP3A [1]; all subjects", "value": 464.0, "unit": "µg·min/L"}, {"measurement": "Median AUC", "setting": "CYP3A [1]; daily fruit consumption", "value": 425.4, "unit": "μg ∗ min/L"}, {"measurement": "Median AUC", "setting": "CYP3A [1]; heterozygous carriers of CYP3A4*22 (n = 4)", "value": 595.1, "unit": "μg ∗ min/L"}, {"measurement": "tmax", "setting": "CYP3A [1]; human, plasma, intravenous, 0.2 mg", "value": 0.167, "unit": "h"}, {"measurement": "clearance", "setting": "CYP3A [1]; human, plasma, intravenous, 0.2 mg, Cl, DZ twins, total plasma clearance, value (range)", "value": 480, "unit": "mL/min"}, {"measurement": "clearance", "setting": "CYP3A [1]; human, plasma, intravenous, 0.2 mg, Cl, DZ twins, value (range)", "value": 6.74, "unit": "mL/min/kg"}, {"measurement": "clearance", "setting": "CYP3A [1]; human, plasma, intravenous, 0.2 mg, Cl, MZ twins, total plasma clearance, value (range)", "value": 450, "unit": "mL/min"}, {"measurement": "clearance", "setting": "CYP3A [1]; human, plasma, intravenous, 0.2 mg, Cl, MZ twins, value (range)", "value": 6.8, "unit": "mL/min/kg"}, {"measurement": "clearance", "setting": "CYP3A [1]; human, plasma, intravenous, 0.2 mg, Clearance, summary in discussion (Table 2)", "value": "~500", "unit": "mL/min"}, {"measurement": "Cmax", "setting": "CYP3A [1]; human, plasma, intravenous, 0.2 mg, DZ twins, value (range)", "value": 3.76, "unit": "ng/mL"}, {"measurement": "Cmax", "setting": "CYP3A [1]; human, plasma, intravenous, 0.2 mg, MZ twins, value (range)", "value": 4.11, "unit": "ng/mL"}, {"measurement": "half-life", "setting": "CYP3A [1]; human, plasma, intravenous, 0.2 mg, Elimination half-life, summary in discussion (Table 2)", "value": "~2", "unit": "h"}, {"measurement": "half-life", "setting": "CYP3A [1]; human, plasma, intravenous, 0.2 mg, t1/2, DZ twins, terminal half-life, value (range)", "value": 3.08, "unit": "h"}, {"measurement": "half-life", "setting": "CYP3A [1]; human, plasma, intravenous, 0.2 mg, t1/2, MZ twins, terminal half-life, value (range)", "value": 2.72, "unit": "h"}, {"measurement": "AUC higher in male than in female subjects", "setting": "CYP3A [1]; median", "value": 8, "unit": "%"}, {"measurement": "Variation of plasma concentrations between subjects", "setting": "CYP3A [1]; one study day, all subjects", "value": "about 10 fold"}, {"measurement": "Median AUC", "setting": "CYP3A [1]; rare fruit consumption", "value": 519.4, "unit": "μg ∗ min/L"}, {"measurement": "Intra-individual (between-days) mean coefficient of variation", "setting": "CYP3A [1]", "value": 11.3, "unit": "%"}, {"measurement": "Median AUC", "setting": "CYP3A [1]; thrice weekly fruit consumption", "value": 446.9, "unit": "μg ∗ min/L"}, {"measurement": "Median AUC", "setting": "CYP3A [1]; very rare fruit consumption", "value": 558.9, "unit": "μg ∗ min/L"}, {"measurement": "Genetic component", "setting": "CYP3A [2]", "value": 0.612}, {"measurement": "Variation that may be due to genetic factors (from genetic component)", "setting": "CYP3A [2]", "value": "up to 61%"}, {"measurement": "C^2 (common environmental effect)", "setting": "CYP3A [3]; ACE model", "value": "0.48 (0.24)*"}, {"measurement": "H^2 (heritability)", "setting": "CYP3A [3]; ACE model", "value": "0.15 (0.25)"}, {"measurement": "Variation attributed to common environmental factors", "setting": "CYP3A [3]; ACE model", "value": 48, "unit": "%"}, {"measurement": "Variation due to additive genetic (inherited) effects", "setting": "CYP3A [3]; ACE model", "value": 15, "unit": "%"}, {"measurement": "H^2 (heritability)", "setting": "CYP3A [3]; AE model", "value": "0.63 (0.06)*"}, {"measurement": "C^2 (common environmental effect)", "setting": "CYP3A [3]; CE model", "value": "0.60 (0.06)*"}, {"measurement": "rdz (correlation between DZ twins)", "setting": "CYP3A [3]", "value": "0.52 (0.13)*"}, {"measurement": "rmz (correlation between MZ twins)", "setting": "CYP3A [3]", "value": "0.66 (0.06)*"}, {"measurement": "Coefficient, CYP3A4*22", "setting": "CYP3A [4]; human", "value": 169.57}, {"measurement": "Coefficient, CYP3A5*3", "setting": "CYP3A [4]; human", "value": 32.33}, {"measurement": "Coefficient, age", "setting": "CYP3A [4]; human", "value": "−0.60"}, {"measurement": "Coefficient, sex", "setting": "CYP3A [4]; human", "value": 74.51}, {"measurement": "Coefficient, lean body weight", "setting": "CYP3A [4]; human, 0.2 mg", "value": "−7.29"}, {"measurement": "Coefficient, smoking status", "setting": "CYP3A [4]; human, 0.2 mg", "value": "−21.79"}, {"measurement": "Coefficient, oral contraceptives", "setting": "CYP3A [4]; human, 0.2 mg", "value": "−63.18"}, {"measurement": "Fraction of midazolam eliminated as 1-OH-midazolam", "setting": "[5]", "value": "Approximately 75%"}]}, {"smiles": "CCC1(c2ccccc2)C(=O)NC(=O)NC1=O", "note": "[phenobarbital]", "values": [{"measurement": "CYP3A activity increased", "setting": "CYP3A [6]", "value": "up to 10 fold"}]}, {"smiles": "NC(=O)N1c2ccccc2C=Cc2ccccc21", "note": "[carbamazepin]", "values": [{"measurement": "CYP3A activity increased", "setting": "CYP3A [6]", "value": "up to 10 fold"}]}, {"smiles": "OCc1ncc2n1-c1ccc(Cl)cc1C(c1ccccc1F)=NC2", "note": "[1-OH-midazolam, 1′-hydroxymidazolam]", "values": [{"measurement": "AUC", "setting": "CYP3A [1]; DZ twins, value (range)", "value": "73.31 (30.95 – 322.8) μg * min/L"}, {"measurement": "Ratio 1-OH-midazolam/midazolam (AUC)", "setting": "CYP3A [1]; DZ twins, value (range)", "value": "0.17 (0.07 – 0.54)"}, {"measurement": "AUC", "setting": "CYP3A [1]; MZ twins, value (range)", "value": "66.88 (33.75 – 195.6) μg * min/L"}, {"measurement": "Ratio 1-OH-midazolam/midazolam (AUC)", "setting": "CYP3A [1]; MZ twins, value (range)", "value": "0.15 (0.09 – 0.61)"}, {"measurement": "AUC, inter-individual range", "setting": "CYP3A [1]; all subjects", "value": "30.95 – 322.8 μg∗min/L"}, {"measurement": "Inter-individual variation in AUC", "setting": "CYP3A [1]; all subjects", "value": 10.4, "unit": "fold"}, {"measurement": "AUC, mean", "setting": "CYP3A [1]; all subjects", "value": 86.2, "unit": "µg·min/L"}, {"measurement": "Intra-individual (between-days) mean coefficient of variation", "setting": "CYP3A [1]", "value": 12.3, "unit": "%"}, {"measurement": "Genetic component", "setting": "CYP3A [2]", "value": "0.93 and 0.931"}, {"measurement": "Variation that may be due to genetic factors (from genetic component)", "setting": "CYP3A [2]", "value": "up to 93%"}, {"measurement": "C^2 (common environmental effect)", "setting": "CYP3A [3]; ACE model", "value": "0.21 (0.23)"}, {"measurement": "H^2 (heritability)", "setting": "CYP3A [3]; ACE model", "value": "0.73 (0.23)*"}, {"measurement": "Variation due to additive genetic (inherited) effects", "setting": "CYP3A [3]; ACE model", "value": 73, "unit": "%"}, {"measurement": "H^2 (heritability)", "setting": "CYP3A [3]; AE model", "value": "0.94 (0.01)*"}, {"measurement": "C^2 (common environmental effect)", "setting": "CYP3A [3]; CE model", "value": "0.78 (0.04)*"}, {"measurement": "rdz (correlation between DZ twins)", "setting": "CYP3A [3]", "value": "0.59 (0.11)*"}, {"measurement": "rmz (correlation between MZ twins)", "setting": "CYP3A [3]", "value": "0.94 (0.01)*"}, {"measurement": "Coefficient, CYP3A4*22", "setting": "CYP3A [4]", "value": "−12.53"}, {"measurement": "Coefficient, CYP3A5*3", "setting": "CYP3A [4]", "value": 29.27}, {"measurement": "Coefficient, age", "setting": "CYP3A [4]", "value": "−1.78"}, {"measurement": "Coefficient, lean body weight", "setting": "CYP3A [4]", "value": "−1.74."}, {"measurement": "Coefficient, sex", "setting": "CYP3A [4]", "value": 11.79}, {"measurement": "Coefficient, smoking status", "setting": "CYP3A [4]", "value": 1.46}, {"measurement": "Coefficient, oral contraceptives", "setting": "CYP3A [4]", "value": "−31.33"}]}]}
